Measurements taken from patent US20090012152A1, “Use of Tetramic Acid Derivatives for Controlling Insects from the Genus of the Plane Lice (Sternorrhyncha)” (Bayer CropScience Aktiengesellschaft, priority 2005, published 2009).

Columns and labels:
Type in all cases: in vivo
Bemisia argentifolii = experiment: Example 35: aubergines (F 100) treated against Bemisia argentifolii; conditions: 7 d after last of three treatments, nymphs on leaves, % a.i.: imidacloprid 0.014, I-9, I-2, I-11 0.0144
Method: In three replications, plots of a size of 10 m^2 with aubergines of the cultivar “F 100” are treated against Bemisia argentifolii. The application is carried out using a knapsack sprayer operated with pressurized air. Here, the active compounds Example (I-9) (60 SC), Example (I-2) (60 SC) and Example (I-11) (60 SC) and the commercial standard imidacloprid (70 WG) are tested at the stated application rates. Three applications are carried out, at an interval or 7 or 8 days. The application rate is 1000 l of water/ha.
Evaluation is carried out 7 days after the last treatment by rating the kill of the nymphs on the leaves.

Viteus vitifolii = experiment: Example 4: vines treated against Viteus vitifolii; conditions: 60 days after last of three treatments, on roots, imidacloprid drip irrigation 560 g/ha, I-4 0.0168%, I-9 0.0144% leaf spray
Method: In four replications, three in each case about 12-year-old vines of the cultivar “Auvemat” are treated against Viteus vitifolii. As commercial standard, imidacloprid is used at the recommended application rate by drip irrigation. The application of the active compounds is by spray application to the leaves using a knapsack operated with pressurized air. Here, the active compounds Example (I-4) (240 SC) and Example (I-9) (240 SC) are applied in a tank mix with 0.1% a.i. of rapeseed oil methyl ester (500 EW) at the stated amount. There are three applications on day 1, 2 and 15. The application rate is 1776 l of water/ha.
Evaluation is carried out 60 days after the last treatment by rating the kill on the roots in percent.

Paratrioza cockerelli = experiment: Example 7: bell peppers treated against Paratrioza cockerelli; conditions: nymphs on leaves, g a.i./ha: imidacloprid 52.6, I-4 72, dimethoate 561; for Kill (%) 7 d: 7 d after treatment; for Kill (%) 15 d: 15 d after treatment
Method: In four replications, plots of a size of about 7 m^2 with bell peppers of the cultivar “Jupiter” are treated against Paratrioza cockerelli. The application is carried out with a knapsack sprayer operated with pressurized air. Here, the active compound Example (I-4) (240 SC) is applied in a tank mix with 0.2% a.i. of rapeseed oil methyl ester (500 EW) and the commercial standards imidacloprid 192 SC and dimethoate (480 EC) are applied in a tank mix with 0.125% Induce at the stated application rates. The application is carried out with an application rate of 467 l of water/ha.
Evaluation is carried out 7 and 15 days after the treatment by rating the kill of the animals (nymphs) on the leaves.

[1] = test system: Trialeurodes vaporariorum; experiment: Example 34: tomatoes treated against Trialeurodes vaporariorum; conditions: larvae on leaves, % a.i.: imidacloprid 0.015, I-9 0.0144, I-4 0.0144
Method: In three replications, plots of a size of 5 m^2 with tomatoes of the cultivar “Rio Grande” are treated against Trialeurodes vaporariorum. The application is carried out using a motor-operated knapsack apparatus. Here, the active compounds Example (I-9) (240 SC) and Example (I-4) (240 SC) and the commercial standard imidacloprid (200 SL) are tested at the stated application rates. The application rate is 1000 l of water/ha. Three applications are carried out, at an interval of 11 or 10 days.
Evaluation is in each case carried out 7 or 10 days after each treatment, by rating the kill of the larvae on the leaves.

Phorodon humuli = experiment: Example 44: hop plants treated against hop aphid; conditions: on leaves, % a.i.: imidacloprid 0.0053, I-9 0.0036, I-4 0.0084; for Kill (%) 6 d: 6 d after treatment; for Kill (%) 46 d: 46 d after treatment
Method: In two replications, about 4-year-old hop plants of the cultivar “Spalter” are treated against the hop aphid Phorodon humuli. The application is carried out using a knapsack sprayer operated with pressurized air. Here, the active compounds Example (I-9) (240 SC) and Example (I-4) (240 SC), in a tank mix with 0.1% a.i. of rapeseed oil methyl ester (500 EW), and the standard imidacloprid are applied at the stated application rates. The application rate is 1200 l of water/ha.
The first evaluation is carried out 6 days and the last evaluation 46 days after the treatment by rating the kill of the animals on the leaves.

Toxoptera citricida = experiment: Example 45: orange tree treated against Toxoptera citricida; conditions: on leaves, % a.i.: imidacloprid 0.0125, I-9 0.0144, I-4 0.0144; for Kill (%) 6 d: 6 d after treatment; for Kill (%) 20 d: 20 d after treatment
Method: In three replications, in each case one about 8-year-old orange tree of the cultivar “Navel” is treated against Toxoptera citricida. Here, the active compounds Example (I-9) (240 SC) and Example (I-4) (240 SC), in a tank mix with 0.1% a.i. of Marlipal, are tested against the commercial standard imidacloprid (350 SC), at the stated application rates. The application is carried out using a motor-operated knapsack sprayer, the application rate being 6.7 l of water/plant.
Evaluation is carried out 6 and 20 days after the treatment by rating the kill of the animals on the leaves.

Myzus persicae = experiment: Example 47: peach trees infested with Myzus persicae; conditions: live animals on shoots, Henderson and Tilten, g a.i./ha/m crown height: imidacloprid 25, I-4 24; for Effect (%) 7 d: 7 d after application; for Effect (%) 14 d: 14 d after application; for Effect (%) 21 d: 21 d after application
Method: In three replications, under practical conditions, about 18-year-old peach trees of the cultivar “Vivian” infested with Myzus persicae are treated with Example (I-4) (240 SC) in a tank mix with 0.2% a.i. of rapeseed oil methyl ester (500 EW) in comparison to the commercial standard imidacloprid 200 SL, at the stated application rates. The application is carried out using a motor-operated knapsack sprayer. The application rate is 1000 l of water/ha.
Evaluation is carried out 7, 14 and 21 days after the application by counting the live animals on the shoots. The efficacy is then calculated by calculating the effect on the population in percent according to Henderson and Tilten.

Aphis gossypii = experiment: Example 52: melons treated against Aphis gossypii; conditions: on shoots, g a.i./ha: imidacloprid 100, I-4 48; for Kill (%) 3 d: 3 d after treatment; for Kill (%) 7 d: 7 d after treatment
Method: In three replications, plots of a size of 15 m^2 with melons are treated against Aphis gossypii. The application is carried out using a knapsack sprayer operated with pressurized air. Here, the active compound Example (I-4) (240 SC), in a tank mix with 0.1% a.i. of rapeseed oil methyl ester (500 EW), and the standard imidacloprid (200 SL) are applied at the stated application rates. The application rate is 500 l of water/ha.
Evaluation is carried out 3 days and 7 days after the treatment by rating the kill of the animals on the shoots.

| SMILES | Kill (%) 7 d (Bemisia argentifolii) [%] | Kill (%) (Viteus vitifolii) | Kill (%) 7 d (Paratrioza cockerelli) [%] | Kill (%) 15 d (Paratrioza cockerelli) [%] | Kill (%) 7 d after the 2nd treatment [1] [%] | Kill (%) 10 d after the 1st treatment [1] [%] | Kill (%) 10 d after the 3rd treatment [1] [%] | Kill (%) 6 d (Phorodon humuli) [%] | Kill (%) 46 d (Phorodon humuli) [%] | Kill (%) 6 d (Toxoptera citricida) [%] | Kill (%) 20 d (Toxoptera citricida) [%] | Effect (%) 7 d (Myzus persicae) [%] | Effect (%) 14 d (Myzus persicae) [%] | Effect (%) 21 d (Myzus persicae) [%] | Kill (%) 3 d (Aphis gossypii) [%] | Kill (%) 7 d (Aphis gossypii) [%] |
| --- | --- | --- | --- | --- | --- | --- | --- | --- | --- | --- | --- | --- | --- | --- | --- | --- |
| CCOC(=O)OC1=C(c2cc(C)ccc2Br)C(=O)NC12CCC(OC)CC2 (centres unmarked) [Example (I-2)] | 100 |  |  |  |  |  |  |  |  |  |  |  |  |  |  |  |
| CCOC(=O)OC1=C(c2cc(C)ccc2C)C(=O)NC12CCC(OC)CC2 (centres unmarked) [Example (I-4)] |  | 55 | 90 | 100 | 100 | 81.9 | 94.3 | 95 | 98.7 | 97 | 97 | 94.0 | 98.9 | 93.3 | 94.7 | 100 |
| O=[N+]([O-])NC1=NCCN1Cc1ccc(Cl)nc1 [imidacloprid, reference compound] | 100 | 26 | 90 | 0 | 88.4 | 53.5 | 67.5 | 99 | 97.6 | 99 | 94 | 97.6 | 95.8 | 78.1 | 98.2 | 100 |
